Experimental data from patent US20240041842A1, “PHARMACEUTICAL COMPOSITION FOR INHIBITING CANCER METASTASIS” (INDUSTRY-ACADEMIC COOPERATION FOUNDATION, YONSEI UNIVERSITY, priority 2021, published 2024).

Assays:
Snail = experiment: Western blot of Snail protein; type: cell-based, human; details: for effect of chloroquine (CQ) on Snail levels: MP or MOG combined with CQ
Experimental: (§1) Cells were harvested, washed with PBS, and lysed on ice with RIPA buffer containing protease and phophatase inhibitor cocktail (GenDEPOT). After 15 minutes of incubation, the cell lysates were centrifuged at 15,000 rpm at 4° C. for 10 minutes. Protein concentration was measured by Bradford assay (Bio-rad, 500-0006). Equal amounts of total protein were placed on an SDS gel electrophoresis and transferred to a PVDF membrane (Bio-rad). The membrane was blocked with 5% skim milk for 1 hour at room temperature and incubated overnight at 4° C. with primary antibody in a buffer containing 0.1% Tween-20. Subsequently, the membrane was washed three times with Tween-PBS buffer and incubated for 1 hour at room temperature using a secondary antibody diluted in blocking buffer containing 0.1% Tween-20. Subsequently, the membrane was washed three times for 10 minutes each using Tween-TBS. Densitometry of Western blots was measured using ImageJ software.
[…] For autophagy activation, cells were'treated with 2 μM rapamycin (Selleckchem, S1039) for 5 hours. Modulation of intracellular ROS was performed with N-acetyl-cysteine (10 mM) (Sigma, A7250), hydrogen peroxide solution (100 μM to 200 μM) (Sigma, 216763), or CDDO-ME NRF2 activator (50 nM, 100 nM) (Sellckchem, S8078) for 4 to 24 hours. Intercellular calcium signal control was performed for 1 hour using BAPTA-AM (20 μM) (Sigma, A1076) or Calmidazolium Chloride (2.5 μM) (Sigma, C3930). […] For TFEB protein phosphorylation, tacrolimus (1 μM) (Selleckchem, S5003) was treated for 1 hour. […] During siRNA treatment, each siRNA was treated to a concentration of 40 to 50 nM and treated together with Lipofectamine RNAiMax (Thermo Fisher Scientific, 13778150) for transformation, and were used for experiments 48 to 72 hours later. For cDNA treatment, each cDNA was treated to a concentration of 1 to 2 μg in a 6-well plate and treated with Lipofectamine 2000 (Thermo Fisher Scientific, 11668019) for transformation, and were used for experiments 24 hours later.

Intracellular citrate = experiment: Citrate assay; type: cell-based, human; details: HBEC-KL; 8 mM MP or 3 mM MOG in the presence of 50 uM CQ
Experimental: Intracellular citrate levels were calculated in the pmol range using a citrate assay kit (Biovision, K655). After sonication, proteins were removed from the supernatant using a 10 kDa molecular weight cutoff spin column, followed by incubation at room temperature for 30 minutes with 50 μl citrate reaction mixture comprising enzyme mixture, developer and citrate probe. Citrate content was measured by reading OD 570 nm with an Envision Multimode Plate Reader (PerkinElmer 2105-0010, Waltham, MA, USA). After correcting the background in all readings, the value of each sample was determined and normalized to the protein concentration of each sample.

LC3 = experiment: Autophagic flux (LC3 Western blot, mRFP-GFP-LC3 lysosomal delivery assay); type: cell-based, human; details: HBEC-KL cell line; NAC or 50 uM STO-609, 24 hours
Experimental: as §1, with “Representative GFP-LC3, RFP-LC3 and overlapping images are shown. In addition, red puncta (mRFP+/GFP−) and yellow puncta (mRFP+/GFP+) per cell were quantified and graphed (n=15 cells/treatment). Cells” for “Cells”

acetylated Snail = experiment: Immunoprecipitation-immunoblot of acetylated Snail; type: cell-based, human; details: A549 luciferase cell line in vitro; 50 uM STO-609, 24 hours
Experimental: (§2) Cell lysates (1 μg protein) were incubated overnight at 4° C. on anti-FLAG® M2 Affinity Gel (Sigma, A2220) or anti-acetyl-lysine antibody coated agarose (ImmuneChem Pharmaceuticals, ICP0388). The immunoprecipitate was then washed three times in IP buffer, and the immunoprecipitated complex was dissolved and separated by boiling in IP buffer for 5 minutes.
For SDS-PAGE electrophoresis, the immunoprecipitated complex was transferred to a nitrocellulose membrane and the membrane was blocked and then incubated for 1 hour at room temperature with Primary antibody and secondary antibody (VeriBlot for IP Detection Reagent (HRP) (Abcam, #ab131366), and anti-mouse IgG tor IP (HRP) (Abeam, #ab131368)).
After washing 3 times, the membrane was incubated with the secondary antibody.

TFEB = experiment: Western blot / immunoprecipitation-immunoblot of TFEB (acetylated, phosphorylated, total); type: cell-based, human; details: HBEC-KL; 50 uM STO-609, 24 hours
Experimental: FIG. 11J illustrates a diagram of immunoblot results of the […] a control (left), and the immunoprecipitation-immunoblot result of TFEB acetylated HBEC-KL cells under the same conditions (right) is also shown,
as §1
as §2, with “For immunoprecipitation, equal amounts of lysate and Co-IP buffer (40 mM HEPES, pH 7.4, 120 mM NaCl, 2 mM EDTA, 0.3% CHAPS (Sigma, 10810118001), 10 mM pyrophosphate (Sigma, 221368), 10 mM glycerophosphate (Sigma, G9422), 50 mM NaF, phosphatase and protease inhibitor mixture) were mixed. Cell” for “Cell”

A549-luc cells = experiment: A549-luc tail vein injection metastasis model; type: in vivo; details: nude mice; 25 mg/kg, 100 mg/kg, qd, p.o. 28 consecutive days; compared to the vehicle-treated group
Experimental: FIG. 13E illustrates role of STO-609 on cancer metastasis in an A549-luc tail vein injection model. After intravenous injection of A549-luc cells into nude mice, vehicle or STO-609 (25 mg/kg and 100 mg/kg qd) was injected for 28 days starting one day after the injection. A picture taken of a bioluminescent image when 4 weeks have elapsed after injection is shown (above). Analysis results of the total metastasis burden by photonic flux are shown (below). FIG. 13H illustrates the role of BMS303141 on cancer metastasis in an A549-luc tail vein injection model. A549-luc cells were intravenously injected into nude mice, and then vehicle or BMS303141 (100 mg/kg q.d.) was injected for 20 days starting one day after the injection. A bioluminescence image when 3 weeks have elapsed after injection is shown. 7- to 9-week-old BALB/c-nu Sic mice were obtained from SLC, Inc. (Shizuoka, Japan) and used, A549-luc cells (#JCRB1414) or SNAI1 shRNA-mediated knockdown A549-luc cells were injected at 3-4.5×10^6 cells through the tail vein of mice. After 3 to 4 weeks, metastasis was monitored by bioluminescence imaging analysis. More specifically, after injecting D-luciferin (75 mg/kg) (PerkinElmer, 122799) into the abdominal cavity of the mouse, images were obtained using an IVIS imaging system (IVIS 200, PerkinElmer, Waltham, MA, USA) in the supine position. Lung tissue was obtained for histopathological analysis. Images were analyzed using commercially available software (ImageScope; Aperio Technologies). In the STO-609 efficacy test, STO-609 (25 mg, 100 mg/kg/day) was orally administered to mice on the day of injection. In the BMS303141 efficacy test, BMS303141 (100 mg/kg/day) was orally administered to mice on the day of injection.

| Compound | expression level of Snail decreased by siIDH1 (Snail; HBEC-KL, 3 mM MOG) | Snail levels when ACLY was reduced (Snail; HBEC-KL, MOG supplemented condition, ACLY siRNA) | effect of chloroquine (CQ) on Snail levels (Snail; HBEC-KL) | effect of chloroquine (CQ) on citrate levels (Intracellular citrate) | Snail expression level decreased by siCS (Snail; HBEC-KL, 8 mM MP) | Snail protein (Snail; HBEC-KL cell line, STO-609) | abnormal increase in Snail expression level by AMG-510 (Snail; KL cell lines, 1 uM AMG-510 and 50 uM STO-609) | autophagic flux (LC3) | acetylated Snail (acetylated Snail) | acetylated TFEB (TFEB) | total metastasis burden (photonic flux) (A549-luc cells) | total number of lung metastases (A549-luc cells) |
| --- | --- | --- | --- | --- | --- | --- | --- | --- | --- | --- | --- | --- |
| COC(=O)CCC(=O)C(=O)OC [MOG, dimethyl-2-oxoglutarate] | restored | did not recover | completely reverses | completely reverses | – | – | – | – | – | – | – | – |
| COC(=O)C(C)=O [MP, methyl pyruvate] | – | – | completely reverses | completely reverses | not increased | – | – | – | – | – | – | – |
| O=C(O)c1ccc2c3c1cccc3c(=O)n1c3ccccc3nc21 [STO-609] | – | – | – | – | – | reduction | reduced | decreased | reduced | reduces | reduced | reduced |
